According to US12264173B2 (GILEAD SCIENCES, INC., priority 2020, dated 2025):
Read-outs that look alike come from different tables or passages of the source.

Legend:
Format in all cases: cell-based
[1] = tested on: RSV strain A2; experiment: microbe, parasite or virus in culture; settings: Table 3, HEp-2 cells, RSV A2, 4 days, read-out: RSV HEp-2 EC50
In short: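 Cytopathic-effect protection assay: HEp-2 cells (50,000/mL) infected with pre-titered RSV A2 onto 3-fold serial compound dilutions, incubated 4 days at 37° C. Cell viability read by CellTiter-Glo luminescence; percent inhibition derived against 0% and 100% virus-inhibition controls.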

[2] = tested on: RSV A2; experiment: RSV NHBE EC50 (RSV A2 antiviral assay in NHBE cells); settings: Table 3, NHBE cells, RSV A2, 4 days, read-out: RSV NHBE EC50
In short: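 Primary bronchial epithelial cells attach overnight, receive 3-fold serial compound dilutions, and are infected with RSV A2 at 1×10^4.5 tissue culture infectious doses/mL. Protection from virus-induced cell death is scored by luminescent viability assay after 4 days.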

[3] = tested on: HRV16; experiment: HRV16 HeLa EC50 (cytopathic effect in H1-HeLa cells)
In short: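 H1-HeLa cells seeded one day before, given 3-fold serial compound dilutions in triplicate just prior to infection with pre-titrated virus. Incubated 96 h at 33 °C/5% CO2; protection from cytopathic effect read as viability by CellTiter-Glo luminescence, normalised to infected untreated (0%) and uninfected (100%) controls.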

[4] = tested on: DENV2 replicon; experiment: DENV-2 Huh-7 Rep EC50 (replicon luminescence)
In short: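 Huh-7 cells carrying a DENV2 replicon, 5,000 cells/well, were incubated with dosed compounds for 48 h at 37° C. EnduRen live-cell substrate was added 1.5 h before luminescence reading. EC50 came from dose-response against DMSO-only wells.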

[5] = human respiratory syncytial virus, HEp-2, 96 h
[6] = human respiratory syncytial virus, NHBE, 96 h
[7] = 96 h, Table 3; H1-HeLa cells, 96 h; read-out: HRV16 HeLa EC50
[8] = Dengue virus, DENV2, Huh-7, 48 h, read-out: DENV-2 REP Huh7 EC50
[9] = Table 3; H1-HeLa cells, 96 h; read-out: HRV16 HeLa EC50
[10] = Table 3, Huh-7 DENV2 replicon cells, 48 hours, read-out: DENV-2 REP Huh7 EC50

| SMILES | EC50 [1, 5] [nM] | EC50 [2, 6] [nM] | EC50 [3, 7] [nM] | EC50 [4, 8] [nM] | EC50 [1] [nM] | EC50 [2] [nM] | EC50 [3, 9] [nM] | EC50 [4, 10] [nM] | EC50 ([4]; Dengue virus, DENV2, Huh-7, 48 h, read-out: DENV-2 REP Huh7 EC50, Table 3, Huh-7 DENV2 replicon cells, 48 hours) [nM] |
| --- | --- | --- | --- | --- | --- | --- | --- | --- | --- |
| COCC(=O)O[C@H]1[C@H](c2ccc3c(N)ncnn23)O[C@](C#N)(CO[P@@](=O)(N[C@@H](C)C(=O)OC(C)C)Oc2ccccc2)[C@H]1OC(=O)COC [Example 151, (2R,3S,4S,5S)-5-(4-aminopyrrolo[2,1-f][1,2,4]triazin-7-yl)-2-cyano-2-((((S)-(((S)-1-isopropoxy-1-oxopropan-2-yl)amino)(phenoxy)phosphoryl)oxy)methyl) tetrahydrofuran-3,4-diyl bis(2-methoxyacetate)] | 226 | 751 | 946 | 19500 |  |  |  |  |  |
| CCCOC(=O)[C@H](C)NP(=O)(OC[C@@]1(C#N)O[C@@H](c2ccc3c(N)ncnn23)[C@H](OC(=O)C(C)C)[C@@H]1OC(=O)C(C)C)Oc1ccccc1 (single isomer, unassigned) [Example 191] |  |  |  |  | 23 | 8 | 64 | 2700 |  |
| CCC(=O)O[C@H]1[C@H](c2ccc3c(N)ncnn23)O[C@](C#N)(CO[P@](=O)(N[C@@H](C)C(=O)OCC2CCN(CC(F)(F)F)CC2)Oc2ccccc2)[C@H]1OC(=O)CC [Example 117] |  |  |  |  | 113 | 20 | 462 | 19100 |  |
| CCC(=O)O[C@H]1[C@H](c2ccc3c(N)ncnn23)O[C@](C#N)(COP(=O)(N[C@@H](C)C(=O)OC(C)C)Oc2ccc(OCCOC)cc2)[C@H]1OC(=O)CC (stereo partly drawn) [Example 215, (2R,3S,4S,5S)-5-(4-aminopyrrolo[2,1-f][1,2,4]triazin-7-yl)-2-cyano-2-((((((S)-1-isopropoxy-1-oxopropan-2-yl)amino)(4-(2-methoxyethoxy)phenoxy)phosphoryl)oxy)methyl)tetrahydrofuran-3,4-diyl dipropionate] | 378 | 142 | 1020 | 27200 |  |  |  |  |  |
| CCCCC(=O)O[C@H]1[C@H](c2ccc3c(N)ncnn23)O[C@](C#N)(COP(=O)(N[C@@H](C)C(=O)OCC)N[C@@H](C)C(=O)OCC)[C@H]1OC(=O)CCCC [Example 194, (2R,3S,4S,5S)-5-(4-Aminopyrrolo[2,1-f][1,2,4]triazin-7-yl)-2-(((bis(((S)-1-ethoxy-1-oxopropan-2-yl)amino)phosphoryl)oxy)methyl)-2-cyanotetrahydrofuran-3,4-diyl dipentanoate] | 391 | 529 | 2090 |  |  |  |  |  | 30900 |
| CC(C)C(=O)O[C@H]1[C@H](c2ccc3c(N)ncnn23)O[C@](C#N)(CO[P@@](=O)(N[C@@H](C)C(=O)O[C@H]2CC[C@H](C(C)(C)C)CC2)Oc2ccccc2)[C@H]1OC(=O)C(C)C [Example 80, (2R,3S,4S,5S)-5-(4-Aminopyrrolo[2,1-f][1,2,4]triazin-7-yl)-2-((((S)-(((S)-1-(((1r,4S)-4-(tert-butyl)cyclohexyl)oxy)-1-oxopropan-2-yl)amino)(phenoxy)phosphoryl)oxy)methyl)-2-cyanotetrahydrofuran-3,4-diyl bis(2-methylpropanoate)] | 1180 | 158 | 1570 | 5300 |  |  |  |  |  |
| CC(=O)O[C@H]1[C@H](c2ccc3c(N)ncnn23)O[C@](C#N)(CO[P@@](=O)(N[C@@H](C)C(=O)OCC2CCN(CC(F)(F)F)CC2)Oc2ccccc2)[C@H]1OC(C)=O [Example 119] |  |  |  |  | 541 | 27 | 1050 | 71400 |  |
| CC(=O)OC1[C@H](c2ccc3c(N)ncnn23)O[C@](C#N)(COP(=O)(N[C@@H](C)C(=O)OCC2CCN(CC(F)(F)F)CC2)Oc2ccccc2)[C@H]1OC(C)=O (stereo in doubt) [Example 118, (2R,3S,4R,5S)-5-(4-aminopyrrolo[2,1-f][1,2,4]triazin-7-yl)-2-cyano-2-((((((S)-1-oxo-1-((1-(2,2,2-trifluoroethyl)piperidin-4-yl)methoxy)propan-2-yl)amino)(phenoxy)phosphoryl)oxy)methyl)tetrahydrofuran-3,4-diyl diacetate] | 224 | 26 | 736 | 54400 |  |  |  |  |  |
